{"source": "patent US20170281509A1", "about": "“COMPOSITIONS AND METHODS FOR MITIGATING SKIN IRRITATION” (GOJO INDUSTRIES, INC., priority 2014, published 2017)", "test_system": "IL-8 secretion by human dermal keratinocytes", "test": "IL-8 secretion (ELISA) in human dermal keratinocytes co-treated with irritant surfactant mixture", "type": "cell-based", "details": "FIG. 1", "excerpt": "Interleukin 8 (IL-8) is a chemokine and proinflammatory cytokine produced by macrophages and other cell types such as epithelial cells. It is secreted from keratinocytes in skin in response to inflammatory stimuli. IL-8 is secreted and is an important mediator of the immune reaction in the innate immune system response. IL-8 overexpressed is a biomarker of skin irritation. Thus, the following method may be employed to measure the irritancy potential of an ingredient or combination of ingredients.\nFor Control A, human dermal keratinocytes were left untreated. No irritation is expected, and therefore Control A provided a baseline. For Control B, IL-8 was induced in human dermal keratinocytes by applying a surfactant mixture that is a combination of sodium laureth sulfate and polyquaternium-10. For all other samples, the human dermal keratinocytes were co-treated with the surfactant mixture and a composition containing the ingredient of interest. Decreased IL-8 expression reflects the ingredient's anti-irritation activity. In other words, decreased IL-8 expression reflects reduced irritancy potential.\nIn order to carry out the test method, an assay kit was employed that was obtained from R&D Systems: Human CXCL8/IL-8 Duoset ELISA Kit.\nThe following steps were followed: 1. […] Using a colorimeter, absorbance of each well in the plates was measured at 450 nanometers (nm) within 30 minutes. […]", "data": [{"substance": "acetyl hexapeptide-51 amide", "values": [{"measurement": "effect on IL-8 secretion compared to Control B (in words)", "result": "reduced IL-8 secretion"}]}]}
